Values of other authors as cited in US20250032463A1, “RAPAMYCIN-CONTAINING PHARMACEUTICAL COMPOSITION” (NOBELPHARMA CO., LTD., priority 2023, published 2025).

stability in aqueous solvents: unstable
SMILES: CO[C@H]1C[C@@H]2CC[C@@H](C)[C@@](O)(O2)C(=O)C(=O)N2CCCC[C@H]2C(=O)O[C@H]([C@H](C)C[C@@H]2CC[C@@H](O)[C@H](OC)C2)CC(=O)[C@H](C)/C=C(\C)[C@@H](O)[C@@H](OC)C(=O)[C@H](C)C[C@H](C)/C=C/C=C/C=C/1C [rapamycin, Rapamycin]
